# Laboratory results: patent publication US6706762B1, “Methods for the use of inhibitors of co-repressors for the treatment of neoplastic diseases” (The Salk Institute for Biological Studies, priority 1997, dated 2004)
# Key:
# [1] = system: myeloid leukemia (HL-60) cells; test: Differentiation of HL-60 cells, CD14 and CD11b expression by flow cytometry; format: cell-based, human; details: 72 hours
# Experimental: If HDAC is a critical component of receptor function then addition of a deacetylase inhibitor, such as Trichostatin A (TSA) (Taunton et al., Science 272:408-411 (1996)) would be expected to relieve transcriptional repression, resulting in a promoter that is likely to be more sensitive to the addition of hormone. This prediction was tested by studying the effect of TSA on the differentiation of myeloid leukemia (HL-60) cells (Collins, Blood 70:1233-1244 (1987)) following a high dose ( 100 nM) 9-cis RA treatment. A hallmark of this process is the appearance of cell surface differentiation markers CD14 and CD11b (Brackman et al., Leukemia Research 19:57-64 (1995)). HL-60 cells cultured in RPMI 10% FBS were plated at a density of 2×10^5/ml in RPMI 2% FBS treated with 9-cis RA (Sigma) and/or Trichostatin A (TSA) (Waco Pure Chemical Industries) for 72 hours and then incubated with R-phycoerythrin (RPE) conjugated anti-human C3bi receptor (CD11b) (DAKO) or RPE-conjugated monoclonal mouse anti-human CD 14 (DAKO) antibodies for 60 minutes on ice. Cells were washed twice with PBS 0.5% BSA and analyzed on a FACScan flow cytometer (Becton Dickinson). The expression of cell surface antigens (CD11b and CD14) were monitored.
# [2] = system: SMRT associated with PLZF-RARα; test: Immunoprecipitation of HA-PLZF-RARα from CV1 cell extracts, immunoblot for SMRT; format: cell-based; details: ATRA (5 μM), 4° C. overnight
# Experimental: (§1) For in vitro immunoprecipitation, in vitro translated proteins were incubated together with 10 μg/μl anti-HA antibody in G buffer at 4° C. for 60 min. Immunocomplexes were isolated by incubation with protein A-agarose, washed four times with G buffer, analyzed by SDS-PAGE and visualized by autoradiography. For in vivo immunoprecipitation, 2×10^7 CV1 cells were transfected with 10 μg of appropriate plasmids and harvested in ice-cold PBS, 24 hours after transfection. Cells were lysed by hypotonic shock and the nuclear pellet was resuspended in IP buffer (PBS, 10 mM NaF, 25 mM β-glycerolphosphate, 0.1% NP-40, 0.5 mM PMSF plus protease inhibitors) and disrupted by mild sonication.
# (§2) Immunocomplexes were resolved by SDS-PAGE and analyzed by immunoblotting.
# RARα / GST-SMRT-IDII = target: T1, RARα / GST-SMRT-IDII (Homo sapiens, UniProt P10276); test: GST-SMRT-IDII affinity matrix, binding of radiolabelled RARα; details: presence of 5 μM ATRA
# T1 construct: made in house; host or cells: 35S-labelled receptor (in vitro translation); GST-SMRT from E. coli DH5a or BL-21
# T1 sequence (P10276 1-462): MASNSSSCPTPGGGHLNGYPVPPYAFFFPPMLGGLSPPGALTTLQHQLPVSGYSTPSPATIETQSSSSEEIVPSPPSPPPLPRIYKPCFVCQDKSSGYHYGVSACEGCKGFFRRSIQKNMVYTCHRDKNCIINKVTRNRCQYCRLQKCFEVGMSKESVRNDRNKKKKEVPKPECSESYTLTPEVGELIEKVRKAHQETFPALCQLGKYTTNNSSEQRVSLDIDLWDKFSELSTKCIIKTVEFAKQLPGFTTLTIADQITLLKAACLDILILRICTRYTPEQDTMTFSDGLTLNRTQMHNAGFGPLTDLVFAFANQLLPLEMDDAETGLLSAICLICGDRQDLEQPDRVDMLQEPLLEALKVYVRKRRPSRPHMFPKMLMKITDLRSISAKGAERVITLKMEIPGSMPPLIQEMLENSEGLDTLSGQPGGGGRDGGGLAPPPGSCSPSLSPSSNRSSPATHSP
# Experimental: (§3) Recombinant proteins were obtained as follows and in vitro protein interaction assays were carried out as follows. GST-PLZF and GST-SMRT fusion proteins were produced from E. Coli DH5a or BL-21 cells and purified by glutathione-Sepharose 4B affinity chromatography. Bound proteins were eluted with 15 mM glutathione. Purified proteins were then reloaded on glutathione-Sepharose 4B beads and used as affinity matrices. Protein interaction assays were performed in G buffer (20 mM Tris, 7.9, 150 mM KCl, 1 mM EDTA, 4 mM MgCl2, 0.26 NP-40, 10% Glycerol) at 4° C. for 60 min with gentle rocking. The beads were washed five times with G buffer and bounded proteins were eluted in SDS sample buffer, separated by SDS-PAGE and visualized by autoradiography.
# [3] = system: PML-RARα expressing HL-60 cells; details: Rousselot et al. (1994); cited from earlier work
# [4] = system: PLZF-RARα / GST-SMRT-PID2; test: GST-SMRT-PID2 affinity matrix, binding of radiolabelled PLZF-RARα; details: presence or absence of 5 μM ATRA
# Experimental: as §3
# GAL-PLZF-RARα = GAL-PLZF-RARα activation of UAS reporter, transient transfection in CV1 cells; format: cell-based; details: for reporter activation in combination with ATRA: TSA 150 nM or NaB 5 mM plus ATRA; for reporter activation in combination with ATRA / relief of repression by GAL-PLZF-RARα: 16 hours; for relief of repression by GAL-PLZF-RARα: TSA 150 nM or NaB 5 mM
# Experimental: (§4) GAL4-DBD fusions of RARα or PLZF-RARα were transfected into CV1 cells and examination of their RA-activation on UAS reporters. CV1 cells were transfected using DOTAP transfection reagents (Boehringer Mannheim). Luciferase activity of each sample was normalized against internal control β-galactosidase activity (Nagy et al. (1997) Cell 89:373-380). Each transfection was carried out in triplicate and repeated at least three times.
# [5] = system: SMRT / DNA-bound PML-RARα; test: Gel mobility shift assay, GST-SMRT-IDII with PML-RARα homodimers on DR5 elements; format: binding; details: compared with RARα/RXRα heterodimers
# From the text: The protein-DNA complexes were then resolved on a 4.5% native polyacrylamide gel and visualized by autoradiography.
# [6] = system: PLZF-RARα / GST-SMRT-IDII; test: GST-SMRT-IDII affinity matrix, binding of radiolabelled PLZF-RARα; details: presence of 5 μM ATRA
# Experimental: as §3
# NB4 cells [7] = test: Nitroblue Tetrazolium (NBT) reduction differentiation assay in NB4 cells; format: cell-based, human; details: three days
# Experimental: (§5) This prediction was tested utilizing the NB4 cell line established from a patient with t(15;17) APL. NB4, NB4-R4 (Shao et al. (1997) Blood 89:4282-4289), HL-60 and HL-60R (Robertson et al. (1992) Blood 80:1885-1889) cells were cultured in RPMI with 10% FBS. […] Differentiation assays with RA and/or TSA were carried out as previously described (Nagy et al. (1997) Cell 89:373-380). NBT assay has been described (Nagy et al. (1995) Mole. Cell. Biol. 15:3540-3551).
# [8] = target: T2, SMRT associated with RARα (Homo sapiens, UniProt P10276); test: Immunoprecipitation of HA-RARα from CV1 cell extracts, immunoblot for SMRT; format: cell-based; details: ATRA (5 μM), 4° C. overnight
# T2 construct: HA-RARα (amino acids 61-462); expressed in transfected cells; host or cells: CV1 cells
# T2 sequence (P10276 61-462): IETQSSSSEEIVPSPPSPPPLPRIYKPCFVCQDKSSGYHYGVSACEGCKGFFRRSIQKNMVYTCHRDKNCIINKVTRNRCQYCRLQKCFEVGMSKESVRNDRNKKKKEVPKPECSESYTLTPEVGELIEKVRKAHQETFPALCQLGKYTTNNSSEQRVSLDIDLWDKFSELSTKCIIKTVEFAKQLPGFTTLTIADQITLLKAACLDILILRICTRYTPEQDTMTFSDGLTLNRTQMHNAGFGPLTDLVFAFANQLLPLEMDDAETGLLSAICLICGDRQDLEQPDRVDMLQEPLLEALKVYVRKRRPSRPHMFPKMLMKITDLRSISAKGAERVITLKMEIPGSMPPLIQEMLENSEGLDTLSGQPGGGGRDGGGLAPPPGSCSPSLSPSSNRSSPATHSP
# Experimental: as §1, §2
# PML-RARα/SMRT complex = test: GST-SMRT (amino acids 1,073-1,330) affinity matrix, radiolabelled PML-RARα; format: binding; details: ATRA
# RARα / SMRT = target: T3, RARα / SMRT (Homo sapiens, UniProt P10276); test: GST-SMRT (amino acids 1,073-1,330) affinity matrix, radiolabelled RARα; format: binding; details: ATRA
# T3 construct: made in house; host or cells: in vitro translated receptor; GST-SMRT from E. coli
# T3 sequence (P10276 1-462): T1 sequence (P10276 1-462)
# PML-RARα = test: TK-βRARE×2-Luc reporter, transcriptional inhibition by PML-RARα in CV1 cells; format: cell-based; details: NaB 5 mM, 100 nM ATRA
# Experimental: as §4
# (§6) It was then sought to determine whether similar effects can be seen on native RA-response elements. As shown previously, exogenous expression of PLZF-RARα or PML-RARα inhibits RA-activation mediated by endogenous RARs on βRARE reporters (FIG. 6(C); de Thé et al. (1991) Cell 66:675-684; Kastner et al. (1992) EMBO J. 11:629-642; Chen et al. (1994) Proc. Natl Acad. Sci. USA 91:1178-1182; Licht et al. (1996) Oncogene 12:323-336; Rousselot et al. (1994) Oncogene 9:545-551).
# PLZF-RARα = test: TK-βRARE×2-Luc reporter, transcriptional inhibition by PLZF-RARα in CV1 cells; format: cell-based; details: NaB 5 mM, 100 nM ATRA
# Experimental: as §4, §6
# NB4-R4 cells = test: NBT reduction differentiation assay in retinoid-resistant NB4-R4 cells; format: cell-based, human; details: three days
# Experimental: as §5
# NB4 cells [9] = test: CD18 expression in NB4 cells by flow cytometry; format: cell-based, human; details: TSA plus 9-cis RA, three days
# Experimental: as §5
# For flow cytometry analysis of CD18 expression, the cells were incubated with a FITC-conjugated anti-CD18 antibody (DAKO) in a dilution of 1:500 in PBS (0.5% BSA) followed by extensive washing before analyzing on a FACSCAN flow cytometer (Becton Dickinson). Although histone deacetylase inhibitors are known to have pleiotropic effects on global gene expression, the fact that CD18 is a direct retinoid target gene (Agura et al. (1992) Blood 79:602-609) supports the notion that histone deacetylases are integral components of PML-RARα mediated differentiation. […] This would explain why the inhibition of SMRT-mediated repression by TSA increases the retinoid sensitivity of NB4 cells.
smiles,measurement,setting,value
"CC1=C(/C=C/C(C)=C\C=C\C(C)=C\C(=O)O)C(C)(C)CCC1 [9-cis RA, 9-cis retinoic acid]",CD14 expression,[1]; suboptimal dose (10 nM) of 9-cis RA alone,modest stimulation
"CC1=C(/C=C/C(C)=C/C=C/C(C)=C/C(=O)O)C(C)(C)CCC1 [ATRA, all-trans retinoic acid]",amount of SMRT associated with PLZF-RARα,[2],largely unaffected
same,binding of RARα to GST-SMRT-IDII,RARα / GST-SMRT-IDII,significantly reduced
same,ATRA concentration up to which cells are resistant,[3],up to 10^−7 M
same,binding of PLZF-RARα to GST-SMRT-PID2,[4],ligand-insensitive
same,response of GAL-PLZF-RARα to ATRA (reporter activation),"GAL-PLZF-RARα; ATRA alone, 36 hours, compared to GAL-RARα",poorly responded
same,ATRA concentration required to dissociate SMRT from DNA-bound PML-RARα versus RAR,[5],substantially higher concentrations
same,binding of PLZF-RARα to GST-SMRT-IDII,[6],significantly reduced
same,percentage of NBT-positive cells,"NB4 cells [7]; 1 mM ATRA alone, parental NB4 cells",23%
same,amount of SMRT which associates with RARα,[8],greatly reduced
same,effect on PML-RARα/SMRT complex,PML-RARα/SMRT complex,only weakly affected
same,dissociation of SMRT from RARα,RARα / SMRT,effectively dissociated
"CCCC(=O)[O-].[Na+] [NaB, sodium butyrate]",reporter activation in combination with ATRA,GAL-PLZF-RARα,synergized with ATRA
same,relief of repression by GAL-PLZF-RARα,GAL-PLZF-RARα,relieved repression
same,relief of transcriptional inhibition by PML-RARα on βRARE reporter,PML-RARα,"partially, relieves transcriptional inhibition"
same,RA activation of βRARE reporter in the presence of PLZF-RARα,PLZF-RARα,restore nearly full RA activation
"CC(/C=C/C(=O)NO)=C\[C@@H](C)C(=O)c1ccc(N(C)C)cc1 [TSA, Trichostatin A]",percentage of NBT-positive cells,NB4-R4 cells; ATRA and 200 nM TSA,18%
same,hormone-induced differentiation (NBT-positive cells),NB4-R4 cells; TSA plus ATRA,partially restored hormone-induced differentiation
same,reporter activation in combination with ATRA,GAL-PLZF-RARα,synergized with ATRA
same,relief of repression by GAL-PLZF-RARα,GAL-PLZF-RARα,relieved repression
same,differentiation effect of ATRA (NBT-positive cells),NB4 cells [7]; TSA 50 nM plus ATRA at all concentrations tested,dramatically enhanced
same,differentiation (NBT-positive cells),NB4 cells [7]; TSA (50 nM) alone,no effect
same,CD14 expression,[1]; 100 nM TSA alone,minimal effect
same,CD14 expression,"[1]; TSA plus 10 nM 9-cis RA, compared with 100 nM 9-cis RA",dramatic enhancement
same,CD14 expression,[1]; TSA plus high dose (100 nM) 9-cis RA,enhanced
same,CD11b expression,[1]; combination of TSA and 9-cis RA,cooperative at both high and low doses
same,CD11b expression,[1]; low doses of TSA alone,partially activated gene expression
same,RA-induced expression of early differentiation marker CD18,NB4 cells [9],strong stimulatory effect
